For one assay, the system named is Del19/T790M/C797S EGFR. Description: EGFR degradation HTRF assay in H1975-clone #28 (DTC) cells. To be noted: H1975 # 28 DTC (Del19/T790M/C797S), 16h treatment; for DC50: HTRF; for Dmax (%): maximum percentage of degradation. Format: cell-based. The method, boiled down: (§1)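 Each homozygous H1975 clone was dosed for 16 h at 37 °C with an 8-dose, 5-fold series (top 10 uM, 0.2% DMSO). An HTRF antibody pair then measured EGFR in lysates, and a sigmoidal fit of percent inhibition gave DC50.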
(In general: Time-resolved FRET reads energy transfer from a long-lived donor to a nearby acceptor.)

In the next assay the target is T1, L858R/T790M/C797S EGFR (Homo sapiens, UniProt P00533, C797S/L858R/T790M).
T1 construct: expressed in transfected cells; host or cells: H1975 clone #25 (lentiviral over-expression, endogenous EGFR knocked out by sgRNA)
In words: EGFR degradation HTRF assay in H1975-clone #25 (LTC) cells. Type of assay: cell-based. To be noted: 16h treatment; for DC50: H1975 # 25-LTC (L858R/T790M/C797S), HTRF; for Dmax: NCI-H1975, H1975 # 25-LTC (L858R/T790M/C797S), maximum percentage of degradation. The method, boiled down: as §1

Structures are written as SMILES.

The results in this text go back to patent US20240342292A1, “Compounds for the Degradation of EGFR Kinase” (BeiGene Switzerland GmbH, priority 2021, published 2024).

For orientation: DC50 means the midpoint of the concentration-degradation curve. A lower DC50 goes with a more potent degrader. As usually defined, the Dmax is the largest share of the target that was removed.

T1 sequence (P00533 25-1210 T790M/C797S/L858R): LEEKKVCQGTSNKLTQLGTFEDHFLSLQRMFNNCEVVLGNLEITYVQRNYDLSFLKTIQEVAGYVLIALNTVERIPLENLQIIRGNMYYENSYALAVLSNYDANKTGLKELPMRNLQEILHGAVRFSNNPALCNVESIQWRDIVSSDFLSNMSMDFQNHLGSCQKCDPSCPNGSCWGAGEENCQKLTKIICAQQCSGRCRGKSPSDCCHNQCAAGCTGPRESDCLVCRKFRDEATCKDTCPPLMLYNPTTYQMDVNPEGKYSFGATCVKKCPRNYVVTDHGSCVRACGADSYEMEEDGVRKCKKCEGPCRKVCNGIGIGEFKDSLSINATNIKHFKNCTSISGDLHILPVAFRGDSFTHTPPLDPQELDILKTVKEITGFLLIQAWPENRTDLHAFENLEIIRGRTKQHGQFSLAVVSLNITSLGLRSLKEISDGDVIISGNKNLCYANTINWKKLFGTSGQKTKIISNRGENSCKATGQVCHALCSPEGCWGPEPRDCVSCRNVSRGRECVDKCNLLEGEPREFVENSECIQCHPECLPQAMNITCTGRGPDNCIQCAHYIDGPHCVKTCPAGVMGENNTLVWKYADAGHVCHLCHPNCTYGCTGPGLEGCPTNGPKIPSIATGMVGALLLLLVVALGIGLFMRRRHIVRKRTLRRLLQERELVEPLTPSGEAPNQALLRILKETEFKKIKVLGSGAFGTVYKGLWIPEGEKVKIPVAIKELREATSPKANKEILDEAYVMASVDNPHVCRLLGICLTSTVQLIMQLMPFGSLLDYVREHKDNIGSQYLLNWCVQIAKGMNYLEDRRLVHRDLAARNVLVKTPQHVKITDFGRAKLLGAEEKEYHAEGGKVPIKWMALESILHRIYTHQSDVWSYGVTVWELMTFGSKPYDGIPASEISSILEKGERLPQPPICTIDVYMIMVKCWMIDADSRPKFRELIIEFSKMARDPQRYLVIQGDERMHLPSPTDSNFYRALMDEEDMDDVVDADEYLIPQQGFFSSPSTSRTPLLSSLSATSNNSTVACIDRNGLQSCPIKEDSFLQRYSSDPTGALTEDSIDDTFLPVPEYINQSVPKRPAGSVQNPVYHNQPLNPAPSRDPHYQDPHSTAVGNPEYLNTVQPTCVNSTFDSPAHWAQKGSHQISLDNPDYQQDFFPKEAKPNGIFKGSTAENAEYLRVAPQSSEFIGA

Consider `Cc1cc2cc(n1)-c1cnn(C)c1OCCC[C@@H](C)CN1/C(=N/C2=O)Nc2ccc(C(=O)N(C)[C@@H]3CCN(CCc4cc(F)c([C@H]5CCC(=O)NC5=O)c(F)c4)C[C@H]3F)cc21` [Example 346, (R,E)-N—((3R,4R)-1-(4-((R)-2,6-dioxopiperidin-3-yl)-3,5-difluorophenethyl)-3-fluoropiperidin-4-yl)-N,1^1,2^6,7-tetramethyl-3-oxo-5^2,5^3-dihydro-1^1H,5^1H-11-oxa-4-aza-5(2,1)-benzo[d]imidazola-2(2,4)-pyridina-1(4,5)-pyrazolacycloundecaphane-5^6-carboxamide], for which, in the assay with Del19/T790M/C797S EGFR, it took 0.411 nM to reach half-maximal degradation (DC50) and the “Dmax (%)” value was determined as 78.78%. For the same molecule, at L858R/T790M/C797S EGFR, the DC50 was 0.526 nM and the Dmax came out at 84.8%.

Regarding `Cc1cc2cc(n1)-c1cnn(C)c1OCCC[C@@H](C)CN1/C(=N/C2=O)Nc2ccc(C(=O)N(CCN3CCN(c4cc(F)c([C@H]5CCC(=O)NC5=O)c(F)c4)CC3)C(C)C)cc21` [Example 282, (R,E)-N-(2-(4-(4-((R)-2,6-dioxopiperidin-3-yl)-3,5-difluorophenyl)piperazin-1-yl)ethyl)-N-isopropyl-1^1,2^6,7-trimethyl-3-oxo-5^2,5^3-dihydro-1^1H,5^1H-11-oxa-4-aza-5(2,1)-benzo[d]imidazola-2(2,4)-pyridina-1(4,5)-pyrazolacycloundecaphane-5^6-carboxamide], in the assay with Del19/T790M/C797S EGFR, half-maximal degradation (DC50) was put at 0.657 nM and the “Dmax (%)” value turned out to be 77.76%. For the same molecule, at L858R/T790M/C797S EGFR, the DC50 came to 0.752 nM and the Dmax was found to be 82.9%.

As for `Cc1cc2cc(n1)-c1cnn(C)c1OCCCCCN1/C(=N/C2=O)Nc2ccc(CN3CCN(CCc4cc(F)c([C@H]5CCC(=O)NC5=O)c(F)c4)CC3)cc21` [Example 144, (R,E)-3-(4-(2-(4-((1^1,2^6-dimethyl-3-oxo-5^2,5^3-dihydro-1^1H,5^1H-11-oxa-4-aza-5(2,1)-benzo[d]imidazola-2(2,4)-pyridina-1(4,5)-pyrazolacycloundecaphane-5^6-yl)methyl)piperazin-1-yl)ethyl)-2,6-difluorophenyl)piperidine-2,6-dione], in the assay on Del19/T790M/C797S EGFR, it took 0.508 nM to reach half-maximal degradation (DC50) and the “Dmax (%)” value is recorded as 55.85%. At L858R/T790M/C797S EGFR, this molecule showed a DC50 of 0.761 nM and a Dmax of 80.8%.

With `Cc1cc2cc(n1)-c1cnn(C)c1OCCC[C@@H](C)CN1/C(=N/C2=O)Nc2ccc(C(=O)N(C)C3CCN(CCc4cc(F)c([C@H]5CCC(=O)NC5=O)c(F)c4)CC3(C)C)cc21` (stereo partly drawn) [Example 439, (R,E)-N—((S)-1-(4-((R)-2,6-dioxopiperidin-3-yl)-3,5-difluorophenethyl)-3,3-dimethylpiperidin-4-yl)-N,1^1,2^6,7-tetramethyl-3-oxo-5^2,5^3-dihydro-1^1H,5^1H-11-oxa-4-aza-5(2,1)-benzo[d]imidazola-2(2,4)-pyridina-1(4,5)-pyrazolacycloundecaphane-5^6-carboxamide], in the assay on Del19/T790M/C797S EGFR, half-maximal degradation (DC50) was put at 1.52 nM and the “Dmax (%)” value worked out at 76.03%. Besides, at L858R/T790M/C797S EGFR, the DC50 was 1.4 nM and the Dmax was 87.3%.

With `Cc1cc2cc(n1)-c1cnn(C)c1OCCC[C@@H](C)CN1/C(=N/C2=O)Nc2ccc(C(=O)N3CCC4(CC3)CN(C(=O)C3CN(c5cc(F)c([C@H]6CCC(=O)NC6=O)c(F)c5)C3)C4)cc21` [Example 221, (R)-3-(2,6-difluoro-4-(3-(7-((R,E)-1^1,2^6,7-trimethyl-3-oxo-5^2,53-dihydro-1^1H,5^1H-11-oxa-4-aza-5(2,1)-benzo[d]imidazola-2(2,4)-pyridina-1(4,5)-pyrazolacycloundecaphane-5^6-carbonyl)-2,7-diazaspirononane-2-carbonyl)azetidin-1-yl)phenyl)piperidine-2,6-dione], in the assay on Del19/T790M/C797S EGFR, it took 0.901 nM to reach half-maximal degradation (DC50) and the “Dmax (%)” value is 85.41%. Also, on L858R/T790M/C797S EGFR, the DC50 turned out to be 0.705 nM and the Dmax stood at 94%.

With `Cc1cc2cc(n1)-c1cnn(C)c1OCC[C@H]1C[C@@H]1CN1/C(=N/C2=O)Nc2ccc(N3CCN(C4CCN(c5ccc(C6CCC(=O)NC6=O)nc5)CC4)CC3)cc21` (stereo partly drawn) [Example 469, 3-(5-(4-(4-((7'S,7^2R,E)-1^1,2^6-dimethyl-3-oxo-5^2,5^3-dihydro-1^1H,5^1H-10-oxa-4-aza-5(2,1)-benzo[d]imidazola-2(2,4)-pyridina-1(4,5)-pyrazola-7(1,2)-cyclopropanacyclodecaphane-5^6-yl)piperazin-1-yl)piperidin-1-yl)pyridin-2-yl)piperidine-2,6-dione], in the assay on Del19/T790M/C797S EGFR, the DC50 was 0.594 nM and the “Dmax (%)” value stood at 76.63%. Also, on L858R/T790M/C797S EGFR, the DC50 turned out to be 0.794 nM and the Dmax stood at 82.7%.

With `Cc1cc2cc(n1)-c1cnn(C)c1OCCC[C@@H](C)CN1/C(=N/C2=O)Nc2ccc(CN3CC4(C3)CN(C(=O)[C@H]3CN(c5cc(F)c([C@H]6CCC(=O)NC6=O)c(F)c5)CC3(C)C)C4)cc21` [Example 80, (R)-3-(4-((R)-3,3-dimethyl-4-(6-(((R,E)-1^1,2^6,7-trimethyl-3-oxo-5^2,5^3-dihydro-1^1H,5^1H-11-oxa-4-aza-5(2,1)-benzo[d]imidazola-2(2,4)-pyridina-1(4,5)-pyrazolacycloundecaphane-5^6-yl)methyl)-2,6-diazaspiro[3.3]heptane-2-carbonyl)pyrrolidin-1-yl)-2,6-difluorophenyl)piperidine-2,6-dione], in the assay on Del19/T790M/C797S EGFR, the DC50 was found to be 0.8 nM and the “Dmax (%)” value was determined as 87.0%. Further, at L858R/T790M/C797S EGFR, the DC50 came out at 0.8 nM and the Dmax amounted to 87.5%.

With `Cc1cc2cc(n1)-c1cnn(C)c1OCCC[C@@H](C)CN1/C(=N/C2=O)Nc2ccc(C(=O)N[C@H]3CCN(CCc4cc(F)c([C@H]5CCC(=O)NC5=O)c(F)c4)CC3(C)C)cc21` [Example 261, (R,E)-N—((S)-1-(4-((R)-2,6-dioxopiperidin-3-yl)-3,5-difluorophenethyl)-3,3-dimethylpiperidin-4-yl)-1^1,2^6,7-trimethyl-3-oxo-5^2,5^3-dihydro-1^1H,5^1H-11-oxa-4-aza-5(2,1)-benzo[d]imidazola-2(2,4)-pyridina-1(4,5)-pyrazolacycloundecaphane-5^6-carboxamide], in the assay with Del19/T790M/C797S EGFR, it took 0.621 nM to reach half-maximal degradation (DC50) and the “Dmax (%)” value is 83.61%. For the same molecule, at L858R/T790M/C797S EGFR, half-maximal degradation (DC50) was put at 0.51 nM and the Dmax turned out to be 91.8%.

In the case of `Cc1cc2cc(n1)-c1cnn(C)c1OCCC[C@@H](C)CN1/C(=N/C2=O)Nc2ccc(N3C[C@@H](C)N(C4CCN(c5cc(F)c([C@H]6CCC(=O)NC6=O)c(F)c5)CC4)C[C@H]3C)cc21` [Example 398, (R)-3-(4-(4-((2R,5R)-2,5-dimethyl-4-((R,E)-1^1,2^6,7-trimethyl-3-oxo-5^2,53-dihydro-1^1H,5^1H-11-oxa-4-aza-5(2,1)-benzo[d]imidazola-2(2,4)-pyridina-1(4,5)-pyrazolacycloundecaphane-5^6-yl)piperazin-1-yl)piperidin-1-yl)-2,6-difluorophenyl)piperidine-2,6-dione], in the assay on Del19/T790M/C797S EGFR, the DC50 was determined as 4.5 nM and the “Dmax (%)” value was found to be 72.53%. At L858R/T790M/C797S EGFR, this molecule showed a DC50 of 4.7 nM and a Dmax of 90.3%.

Take `Cc1cc2cc(n1)-c1cnn(C)c1OCCC[C@@H](C)CN1/C(=N/C2=O)Nc2ccc(CN3CCN(C(=O)[C@@H]4CCN(c5cc(F)c([C@H]6CCC(=O)NC6=O)c(F)c5)C4)C[C@H]3C)cc21` [Example 100, (R)-3-(2,6-difluoro-4-((R)-3-((R)-3-methyl-4-(((R,E)-1^1,2^6,7-trimethyl-3-oxo-5^2,5^3-dihydro-1^1H,5^1H -11-oxa-4-aza-5(2,1)-benzo[d]imidazola-2(2,4)-pyridina-(4,5)-pyrazolacycloundecaphane-5^6-yl)methyl)piperazine-1-carbonyl)pyrrolidin-1-yl)phenyl)piperidine-2,6-dione]: in the assay on Del19/T790M/C797S EGFR, the DC50 was found to be 0.7 nM and the “Dmax (%)” value is 72.8%. For the same molecule, on L858R/T790M/C797S EGFR, the DC50 was 1 nM and the Dmax came out at 85.5%.

In the case of `Cc1cc2cc(n1)-c1cnn(C)c1OCCC[C@@H](C)CN1/C(=N/C2=O)Nc2ccc(CN3CCC(N4CCN(C5CN(c6cc(F)c([C@H]7CCC(=O)NC7=O)c(F)c6)C5)CC4)CC3)cc21` [Example 18, (R)-3-(2,6-difluoro-4-(3-(4-(1-(((R,E)-1^1,2^6,7-trimethyl-3-oxo-5^2,5^3-dihydro-1^1H,5^1H-11-oxa-4-aza-5(2,1)-benzo[d]imidazola-2(2,4)-pyridina-1(4,5)-pyrazolacycloundecaphane-5^6-yl)methyl)piperidin-4-yl)piperazin-1-yl)azetidin-1-yl)phenyl)piperidine-2,6-dione], in the assay with Del19/T790M/C797S EGFR, the DC50 was determined as 2.1 nM and the “Dmax (%)” value was determined as 75.8%. On L858R/T790M/C797S EGFR, this molecule came in with a DC50 of 4.4 nM and a Dmax of 87.4%.

Regarding `Cc1cc2cc(n1)-c1cnn(C)c1OCCC[C@@H](C)CN1/C(=N/C2=O)Nc2ccc(N3CCC(C(=O)N4CCC(Oc5cc(F)c([C@H]6CCC(=O)NC6=O)c(F)c5)CC4)CC3)cc21` [Example 364, (R)-3-(2,6-difluoro-4-((1-(1-((R,E)-1^1,2^6,7-trimethyl-3-oxo-5^2,53-dihydro-1^1H,5^1H-11-oxa-4-aza-5(2,1)-benzo[d]imidazola-2(2,4)-pyridina-1(4,5)-pyrazolacycloundecaphane-5^6-yl)piperidine-4-carbonyl)piperidin-4-yl)oxy)phenyl)piperidine-2,6-dione], in the assay on Del19/T790M/C797S EGFR, half-maximal degradation (DC50) was put at 0.633 nM and the “Dmax (%)” value turned out to be 75.27%. Further, on L858R/T790M/C797S EGFR, the DC50 is 1.12 nM and the Dmax was determined as 86.4%.
